# In US20170166879A1, “NOVEL (R)-HYDROXYNITRILE LYASE” (PUBLIC UNIVERSITY CORPORATION TOYAMA PREFECTURAL UNIVERSITY, priority 2014, published 2017):
# Where two headings read alike, the source gives them in different places. Non-standard residues stand in square brackets, D forms with d. Residues, ends and D or L forms follow the SMILES beside them. *: point of attachment. Sta = CC(C)C[C@H](N)[C@@H](O)CC(=O)O; Isovaleryl = CC(C)CC(=O)*
# How the values were obtained:
# R-ChHNL [1] = target: T1, R-ChHNL (Chamberlinius hualienensis, UniProt A0A0H5BR52); experiment: Dynamic (kinetic) analysis, racemic mandelonitrile as substrate (decomposition reaction); format: biochemical
# R-ChHNL [2] = target: T1, R-ChHNL; experiment: Dynamic (kinetic) analysis, aldehyde substrates, Hanes-Woolf plot
# R-ChHNL [3] = target: T1, R-ChHNL; experiment: Search of inhibitor of R-ChHNL activity (remaining activity); format: biochemical
# [4] = system: S-HNL derived from Baliospermum; settings: cited from earlier work
# R-ChHNL [5] = target: T1, R-ChHNL; experiment: Substrate identification by cyanohydrin synthetic reaction; format: biochemical; settings: 50 mM carbonyl compound, 100 mM KCN, pH 4.2, 25° C., 5 minutes (aliphatic: 2 hours)
# O=Cc1cccc2ccccc12 = experiment: purified protein, by the assay type; settings: other: aldehydes other than benzaldehyde; condition similar to the above-described condition; pH 5.2
# Cc1ccc(C=O)cc1 = experiment: purified protein, by the assay type; settings: other: aldehydes other than benzaldehyde; condition similar to the above-described condition; pH 5.2
# Cc1cccc(C=O)c1 = experiment: purified protein, by the assay type; settings: other: aldehydes other than benzaldehyde; condition similar to the above-described condition; pH 5.2
# [6] = Decomposition reaction from racemic mandelonitrile to benzaldehyde, absorbance at 280 nm; format: biochemical, Chamberlinius hualienensis; settings: purified enzyme; decomposition: 2 mM racemic mandelonitrile, pH 5.0-5.5, 22° C.
# [7] = format: biochemical, Chamberlinius hualienensis
# Method: The stability to temperature was measured by performing the reaction in a reaction mixture of pH 7.0 at the temperature range of 0 to 70° C. for 1 hour. In addition, the reaction was similarly performed except that the reaction temperature was adjusted to 20° C. and pH was changed in the range of 3 to 11. In the reaction, citrate-phosphate buffer was used when pH was 3 to 8, and glycine-NaOH buffer was used when pH was 8 to 11. The enzyme activity was measured according to the method described in Dadashipour et al. (2011). […] In addition, the relation between the reaction temperature and the remaining activity and the relation between the reaction pH and the remaining activity of both R-ChHNLs are respectively shown in FIG. 7(A) and FIG. 7(B).
# [8] = aldehydes other than benzaldehyde, condition similar to the above-described condition
# [9] = aldehydes other than benzaldehyde, relative to benzaldehyde at pH 5.2 and 22° C.
# [10] = 10 mM, pH 7.0, 20° C., 60 minutes
# [11] = concentration not given (1 mM or 0.1 mM), pH 7.0, 20° C., 60 minutes
# [12] = 1 mM, pH 7.0, 20° C., 60 minutes
# [13] = 1 mM, pH 7.0, 20° C., 60 minutes, read-out: Remaining activity
# [14] = 10 mM, pH 7.0, 20° C., 60 minutes, read-out: Remaining activity
# [15] = 100 μg/mL, pH 7.0, 20° C., 60 minutes
compound,measurement,setting,value
"N#CC(O)c1ccccc1 (racemic) [racemic mandelonitrile, mandelonitrile]",Km,R-ChHNL [1],5.5 mM
same,Vmax,R-ChHNL [1],2819 µmol/min/mg
same,kcat,R-ChHNL [1],1168 s⁻¹
same,max S.A. (specific activity),R-ChHNL [1],1896 U/mg
O=Cc1cccc2ccccc12 [1-naphthalenecarboxaldehyde],max S.A. (specific activity),R-ChHNL [2]; [8],326 U/mg
same,relative S.A.,R-ChHNL [2]; [9],4.4
"Cc1ccc(C=O)c(C)c1 [2,4-dimethylbenzaldehyde]",Km,R-ChHNL [2]; [8],0.94 mM
same,Vmax,R-ChHNL [2]; [8],632.2 µmol/min/mg
same,kcat,R-ChHNL [2]; [8],261.8 s⁻¹
same,max S.A. (specific activity),R-ChHNL [2]; [8],654 U/mg
same,relative S.A.,R-ChHNL [2]; [9],8.8
OCCS [2-mercaptoethanol],Remaining activity,R-ChHNL [3]; [10],95%
Cc1ccccc1C=O [2-methylbenzaldehyde],Km,R-ChHNL [2]; [8],3.1 mM
same,Vmax,R-ChHNL [2]; [8],2564.9 µmol/min/mg
same,kcat,R-ChHNL [2]; [8],1062.3 s⁻¹
same,max S.A. (specific activity),R-ChHNL [2]; [8],2395 U/mg
same,relative S.A.,R-ChHNL [2]; [9],32.2
O=Cc1cccs1 [2-thiophenecarboxaldehyde],Km,R-ChHNL [2]; [8],18.7 mM
same,Vmax,R-ChHNL [2]; [8],3522 µmol/min/mg
same,kcat,R-ChHNL [2]; [8],1459 s⁻¹
same,max S.A. (specific activity),R-ChHNL [2]; [8],2403 U/mg
same,relative S.A.,R-ChHNL [2]; [9],32.3
COc1cccc(C=O)c1 [3-methoxybenzaldehyde],Km,R-ChHNL [2]; [8],5.7 mM
same,Vmax,R-ChHNL [2]; [8],3228.2 µmol/min/mg
same,kcat,R-ChHNL [2]; [8],1337 s⁻¹
same,max S.A. (specific activity),R-ChHNL [2]; [8],3326 U/mg
same,relative S.A.,R-ChHNL [2]; [9],44.7
Cc1cccc(C=O)c1 [3-methylbenzaldehyde],max S.A. (specific activity),R-ChHNL [2]; [8],12657 U/mg
same,relative S.A.,R-ChHNL [2]; [9],170.3
O=Cc1ccc(Br)cc1 [4-bromobenzaldehyde],Km,R-ChHNL [2]; [8],9.5 mM
same,Vmax,R-ChHNL [2]; [8],19940 µmol/min/mg
same,kcat,R-ChHNL [2]; [8],8259 s⁻¹
same,max S.A. (specific activity),R-ChHNL [2]; [8],17375 U/mg
same,relative S.A.,R-ChHNL [2]; [9],233.8
COc1ccc(C=O)cc1 [4-methoxybenzaldehyde],Km,R-ChHNL [2]; [8],6.7 mM
same,Vmax,R-ChHNL [2]; [8],7482 µmol/min/mg
same,kcat,R-ChHNL [2]; [8],3099 s⁻¹
same,max S.A. (specific activity),R-ChHNL [2]; [8],6849 U/mg
same,relative S.A.,R-ChHNL [2]; [9],92.1
Cc1ccc(C=O)cc1 [4-methylbenzaldehyde],max S.A. (specific activity),R-ChHNL [2]; [8],11072 U/mg
same,relative S.A.,R-ChHNL [2]; [9],149.0
O=[N+]([O-])[O-].[Ag+] [AgNO3],Remaining activity,R-ChHNL [3]; [11],68%
[Cl][Cd][Cl] [CdCl2],Remaining activity,R-ChHNL [3]; [11],99%
[Cl-].[Cl-].[Co+2] [CoCl2],Remaining activity,R-ChHNL [3]; pH 7,95%
[Cl][Cr]([Cl])[Cl] [CrCl3],Remaining activity,R-ChHNL [3]; [11],88%
O=S(=O)([O-])[O-].[Cu+2] [CuSO4],Remaining activity,R-ChHNL [3]; [11],100%
O[C@@H](CS)[C@@H](O)CS [DTT],Remaining activity,R-ChHNL [3]; [11],100%
O=C(O)CN(CCN(CC(=O)O)CC(=O)O)CC(=O)O [EDTA],Remaining activity,R-ChHNL [3]; [10],100%
[Cl][Fe]([Cl])[Cl] [FeCl3],Remaining activity,R-ChHNL [3]; [11],100%
[Cl][Hg][Cl] [HgCl2],Remaining activity,R-ChHNL [3]; [11],64%
O=S(=O)([O-])[O-].[Mn+2] [MnSO4],Remaining activity,R-ChHNL [3]; [11],106%
CCN1C(=O)C=CC1=O [N-ethylmaleimide],Remaining activity,R-ChHNL [3]; [11],100%
[Cl][Ni][Cl] [NiCl2],Remaining activity,R-ChHNL [3]; [11],93%
[Cl][Pb][Cl] [PbCl2],Remaining activity,"R-ChHNL [3]; 0.1 mM, pH 7.0, 20° C., 60 minutes",98%
same,Remaining activity,R-ChHNL [3]; [12],77%
O=S(=O)([O-])[O-].[Zn+2] [ZnSO4],Remaining activity,R-ChHNL [3]; [11],100%
N.N#CS [ammonium thiocyanate],inhibition of S-HNL,[4],strongly inhibits
CCC1(CC)C(=O)NC(=O)NC1=O [barbital sodium],Remaining activity,R-ChHNL [3]; [11],93%
O=Cc1ccccc1 [benzaldehyde],max S.A. (specific activity),"R-ChHNL [2]; pH5.2, 22° C.",7433 U/mg
same,relative S.A.,"R-ChHNL [2]; pH5.2, 22° C., the reference case (100)",100
same,max S.A. (specific activity),"R-ChHNL [2]; pH5.8, 35° C.",17141 U/mg
same,relative S.A.,"R-ChHNL [2]; pH5.8, 35° C., relative to benzaldehyde at pH 5.2 and 22° C.",230.6
same,activity of R-ChHNL on the carbonyl compound as substrate,R-ChHNL [5],recognizes
CCOC(=O)OC(=O)OCC [diethylpyrocarbonate],remaining activity at 1000 µM,R-ChHNL [3]; [13],100%
same,remaining activity at 10000 µM,R-ChHNL [3]; [14],79%
O=C1NC(=O)C(c2ccccc2)(c2ccccc2)N1 [diphenylhydantoin],Remaining activity,R-ChHNL [3]; [11],100%
O=C(O)c1cc(SSc2ccc([N+](=O)[O-])c(C(=O)O)c2)ccc1[N+](=O)[O-] [dithionitrobenzoic acid],Remaining activity,R-ChHNL [3]; [11],97%
NN [hydrazine],Remaining activity,R-ChHNL [3]; [11],100%
NC(=O)CI [iodoacetamide],remaining activity at 1000 µM,R-ChHNL [3]; [13],75%
same,remaining activity at 10000 µM,R-ChHNL [3]; [14],28%
same,inhibition of the activity of R-ChHNL,R-ChHNL [3]; concentration increased to 10 mM,inhibit
O=C(O)CI [iodoacetic acid],inhibition of the activity of R-ChHNL,R-ChHNL [3],inhibit
same,remaining activity at 1000 µM,R-ChHNL [3]; pH 7,52%
same,remaining activity at 10000 µM,R-ChHNL [3]; pH 7,18%
CC(=O)N[C@@H](CC(C)C)C(=O)N[C@@H](CC(C)C)C(=O)N[C@H](C=O)CCCNC(=N)N [leupeptin],remaining activity at 100 µg/mL,R-ChHNL [3]; [15],86%
O=C(O)c1cc[c]([Hg][Cl])cc1 [p-chloromercuribenzoic acid],Remaining activity,R-ChHNL [3]; [11],100%
CC(C)CC(=O)N[C@H](C(=O)N[C@H](C(=O)N[C@@H](CC(C)C)[C@@H](O)CC(=O)N[C@@H](C)C(=O)N[C@@H](CC(C)C)[C@@H](O)CC(=O)O)C(C)C)C(C)C [pepstatin A] (Isovaleryl-VV[Sta]A[Sta]-OH),Remaining activity,R-ChHNL [3]; [15],89%
"O=S(=O)(F)Cc1ccccc1 [phenylmethylsulfonyl fluoride (PMSF), phenylmethylsulfonyl fluoride]",Remaining activity,R-ChHNL [3]; [12],91%
same,Remaining activity,R-ChHNL [3]; [10],60%
NC(=S)Nc1ccccc1 [phenylthiourea],Remaining activity,R-ChHNL [3]; [11],100%
O=Cc1ccc2c(c1)OCO2 [piperonal],Km,R-ChHNL [2]; [8],5.6 mM
same,Vmax,R-ChHNL [2]; [8],3006.6 µmol/min/mg
same,kcat,R-ChHNL [2]; [8],1245.2 s⁻¹
same,max S.A. (specific activity),R-ChHNL [2]; [8],2748 U/mg
same,relative S.A.,R-ChHNL [2]; [9],37.0
N[C@@H](CCC(=O)N[C@@H](CS)C(=O)NCC(=O)O)C(=O)O [reduced glutathione],Remaining activity,R-ChHNL [3]; pH 7,93%
R-ChHNL (Chamberlinius hualienensis),Km,O=Cc1cccc2ccccc12,0.65 mM
same,Vmax,O=Cc1cccc2ccccc12,313 µmol/min/mg
same,kcat,O=Cc1cccc2ccccc12,130 s⁻¹
same,kcat/Km,O=Cc1cccc2ccccc12,199000 M⁻¹ s⁻¹
same,Km,Cc1ccc(C=O)cc1,5.0 mM
same,Vmax,Cc1ccc(C=O)cc1,11900 µmol/min/mg
same,kcat,Cc1ccc(C=O)cc1,4940 s⁻¹
same,kcat/Km,Cc1ccc(C=O)cc1,989000 M⁻¹ s⁻¹
same,Km,Cc1cccc(C=O)c1,9.9 mM
same,Vmax,Cc1cccc(C=O)c1,14000 µmol/min/mg
same,kcat,Cc1cccc(C=O)c1,5800 s⁻¹
same,kcat/Km,Cc1cccc(C=O)c1,584000 M⁻¹ s⁻¹
"R-ChHNL: (R)-hydroxynitrile lyase purified from Chamberlinius hualienensis, amino acid sequence SEQ ID NO: 3, homodimer",activity in cyanohydrin synthesis direction relative to activity in cyanohydrin decomposition reaction,[6],2.6 times
same,stability to pH (remaining activity),[7],stability in broad pH range
same,pH of maximum activity,"[7]; 20° C., pH 3 to 11, FIG. 5",5.8
same,activity after heating at 60° C.,"[7]; 60° C. for 1 hour or longer, FIG. 6",maintained
same,activity maintained after heating at 75° C.,[7]; 75° C. for 1 hour,20%
same,optimum temperature,[7]; FIG. 6,35 °
same,temperature at which high activity is exhibited,[7]; FIG. 6,≤ 60 °C
same,activity at pH 4 as share of maximum activity value,"[7]; pH 4, FIG. 5",about 10%
"avidin: avidin, listed as biotin reagent",Remaining activity,R-ChHNL [3]; [15],96%
oxidized glutathione,Remaining activity,"R-ChHNL [3]; 0.5 mM, pH 7.0, 20° C., 60 minutes",95%
